Reference: US20050255147A1, “Composition for dietary enrichment” (ZOOLIFE INTERNATIONAL LIMITED, priority 2002, published 2005)

System: clown fish
Experiment: Skin coloration of clown fish on supplemented diet
Format: in vivo
Conditions: synthetic astaxanthin 1000 mg/kg granulated diet, compositions below 50 mg/kg astaxanthin in final feed

SMILES: CC1=C(/C=C/C(C)=C/C=C/C(C)=C/C=C/C=C(C)/C=C/C=C(C)/C=C/C2=C(C)C(=O)[C@@H](O)CC2(C)C)C(C)(C)C[C@H](O)C1=O [synthetic astaxanthin, astaxanthin]
- skin coloration: do not to significantly alter skin coloration
